Source: PubChem BioAssay (NCI)
Values joined by “and” are separate entries in the source; they are usually repeats but may differ in a detail not shown here. Equal values may be shown once.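 Cells were grown in 96-well plates and exposed to each compound for 48 hours at five concentrations; endpoints were interpolated linearly between bracketing concentrations, or set to the highest concentration if not reached. GI50 is the concentration that inhibits growth by half. At the TGI there is no net growth.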

Legend:
Assay in all cases: DTP human tumour cell line panel, 48 h
A549 NSCLC = test system: A549 NSCLC
EKVX NSCLC = test system: EKVX NSCLC
HCT-15 colon = test system: HCT-15 colon
MALME-3M melanoma = test system: MALME-3M melanoma
NCI-H226 lung = test system: NCI-H226 lung
NCI-H23 lung = test system: NCI-H23 lung
OVCAR-8 ovarian = test system: OVCAR-8 ovarian
RPMI-8226 leukemia = test system: RPMI-8226 leukemia
U251 CNS = test system: U251 CNS
UACC-62 melanoma = test system: UACC-62 melanoma

SMILES	GI50 (A549 NSCLC)	TGI (A549 NSCLC)	GI50 (EKVX NSCLC)	TGI (EKVX NSCLC)	GI50 (HCT-15 colon)	TGI (HCT-15 colon)	GI50 (MALME-3M melanoma)	TGI (MALME-3M melanoma)	GI50 (NCI-H226 lung)	GI50 (NCI-H23 lung)	TGI (NCI-H23 lung)	GI50 (OVCAR-8 ovarian)	TGI (OVCAR-8 ovarian)	GI50 (RPMI-8226 leukemia)	TGI (RPMI-8226 leukemia)	GI50 (U251 CNS)	TGI (U251 CNS)	GI50 (UACC-62 melanoma)	TGI (UACC-62 melanoma)	TGI (NCI-H226 lung)
O=C(/C=C/c1ccco1)Nc1ncc(Cc2cccc(C(F)(F)F)c2)s1	0.113 µM	> 36.4 µM	0.117 µM	> 55.8 µM	0.0465 µM	> 34.3 µM	0.125 µM	10.6 µM	0.336 µM	0.208 µM	> 39.7 µM	0.138 µM	> 37.7 µM	0.291 µM	10.9 µM	0.0532 µM	2.11 µM	0.0545 µM	24.6 µM	
CN(C)c1ccc(/C=C(\C#N)c2ccccc2)cc1	0.73 µM and 0.796 µM and 0.691 µM	> 100 µM	0.499 µM and 1.43 µM and 1.78 µM	> 100 µM	0.3 µM and 0.348 µM and 0.383 µM	> 100 µM	2.58 µM and 18 µM	> 100 µM	4.7 µM and 13.3 µM and 24 µM	0.957 µM and 1.33 µM and 0.76 µM	> 100 µM	0.61 µM and 2.52 µM and 2.65 µM	> 100 µM	0.288 µM and 0.648 µM		0.378 µM and 0.499 µM and 0.538 µM	55.4 µM and > 100 µM and 91.5 µM	0.312 µM and 0.36 µM and 0.52 µM	> 100 µM	> 100 µM
O=C(O)c1ccc(NCc2nc3ccccc3[nH]2)cc1	> 100 µM	> 100 µM	> 100 µM	> 100 µM	> 100 µM	> 100 µM	1.25 µM	7.52 µM	> 100 µM	> 100 µM	> 100 µM	> 100 µM	> 100 µM	> 100 µM	> 100 µM	> 100 µM	> 100 µM	> 100 µM	> 100 µM	> 100 µM
CC(C)n1nc(C#Cc2cccc(O)c2)c2c(N)ncnc21	2.62 µM and 3.17 µM	18.3 µM and 14.6 µM	9.41 µM and 7.49 µM	29 µM and 25.7 µM	1.35 µM and 0.906 µM	21.6 µM and 10.1 µM	0.248 µM and 0.234 µM	1.38 µM and 0.917 µM	3.81 µM and 1.37 µM	1.23 µM and 0.992 µM	6.75 µM and 5.4 µM	1.99 µM and 2.41 µM	30.1 µM and 16.1 µM	1.13 µM and 0.516 µM	5.78 µM and 6.19 µM	2.83 µM and 2.95 µM	50 µM and 12.8 µM	0.82 µM and 0.346 µM	2.59 µM and 1.58 µM	21.1 µM and 6.02 µM
Cc1cc(I)cc(CNCCN2CCOCC2)c1O	> 100 µM	> 100 µM	24.3 µM	> 100 µM	> 100 µM	> 100 µM	> 100 µM	> 100 µM	> 100 µM	27.5 µM	> 100 µM	> 100 µM	> 100 µM	> 100 µM	> 100 µM	> 100 µM	> 100 µM	> 100 µM	> 100 µM	> 100 µM
COc1ccc(C2CC(c3ccccc3)=NN2C(=O)c2cc(OC)c(OC)c(OC)c2)cc1O (stereo not drawn)	0.545 µM	> 100 µM	3.04 µM	> 100 µM	0.352 µM	40.2 µM	41.2 µM	> 100 µM	1.29 µM	0.743 µM	> 65.8 µM	0.659 µM	> 76.5 µM	0.259 µM	5.47 µM	0.383 µM	13.8 µM	0.269 µM	15.8 µM	21.3 µM
CC(=O)OC1CC2C(C)(C)CCC[C@]2(C)C2=C1C(O)=C(C(C)C)C(=O)C2=O (stereo partly drawn)	0.521 µM	3.01 µM	0.3 µM	1.53 µM	0.351 µM	2.04 µM	0.341 µM	1.59 µM	0.589 µM	0.704 µM	2.98 µM	2.14 µM	14.5 µM	0.466 µM	4.08 µM	0.666 µM	21.7 µM	0.323 µM	1.42 µM	2.12 µM
CCc1cccc(C)c1N1C(=O)C(=O)C(c2nc3ccccc3o2)/C(=N/NC(=S)NN)C1=O (stereo not drawn)		> 100 µM		> 100 µM		> 100 µM		> 100 µM			> 100 µM		> 100 µM		> 100 µM		> 100 µM		> 100 µM	> 100 µM
Cc1cc(O[C@@H]2O[C@@H](C)[C@H](O)[C@@H](O)[C@H]2O)c2c3c(c(O[C@@H]4O[C@@H](C)[C@H](O)[C@@H](O)[C@H]4O)cc2c1)C(=O)c1c(O)cccc1C3=O	> 30 µM	> 30 µM	> 30 µM	> 30 µM	> 30 µM	> 30 µM	> 30 µM	> 30 µM	> 30 µM	> 30 µM	> 30 µM	> 30 µM	> 30 µM	> 30 µM	> 30 µM	> 30 µM	> 30 µM	> 30 µM	> 30 µM	> 30 µM
